# Residues, ends and D or L forms follow the SMILES beside them.
# Assays:
# [1] = Excerpt: Stability constants for proton and metal complexes were obtained from pH-metric titration curves registered at T = 298 K and ionic strength 0.1 M (KCl). The potentiometric apparatus was previously described. Solutions were titrated with 0.1 M carbonate-free KOH. The electrode was daily calibrated for hydrogen ion concentration by titrating HNO3 with the standard base solution, under the same experimental conditions as above. The asymmetry potential and the slope of the electrode couple were computed by means of […][41] and Glee[42] programs. The purities and exact concentrations of the ligand solutions were determined by the Gran method. The […][44] program was employed for the overall formation constant (β) calculations, referred to the following equilibrium equation: pM + qL + rH ⇆ MpLqHr (charges omitted; p is 0 in the case of ligand protonation; r can be negative). The computed standard deviations (referring to random errors only) were given by the program itself and are shown in parentheses as uncertainties on the last significant figure. Hydrolysis constants for metal ions were taken from the literature[45],[46]. The distribution and competition diagrams were computed using the HYSS program.
# 1. Wild-type calcitermin: thermodynamic data
# Wild-type calcitermin (WT) has been previously investigated by our research group in aqueous solutions and ionic medium NaClO4.1 For the sake of comparison, potentiometric studies of WT and its copper and zinc complexes have been performed in a different ionic medium (KCl 0.1 M). The study of the speciation under different experimental conditions, changing ionic medium and metal-ligand ratio, is essential to comprehensively describe the thermodynamics of calcitermin, which is usually found in multicomponent media like biological fluids.
# Table S1. Equilibrium constants for protonation of WT and its Cu2+ and Zn2+ complex formation at T = 298 K and I = 0.1 M (KCl). Values in parentheses are standard deviations on the last significant figure.
# E. coli (ATCC 25922) = assay: In vitro anti-E. coli CFU assay; assay type: cell-based, Escherichia coli; settings: pH 5.4; for mean CFU number ± S.D.: per 0.1 mL
# Protocol: All microbes were grown at 37 °C in Tryptic Soy Broth (TSB; Biolife, Milan, Italy) or Tryptic Soy Agar plates (TSA, Biolife, Milan, Italy). Peptides were tested at a final concentration C = 0.128, 0.064, 0.032 mg/mL, in the presence or absence of ZnCl2 or CuCl2, at a M:L molar ratio 0.9:1. Briefly, all the microbes were expanded in TSB at 37 °C under agitation for 12 h and then sub-cultured by 1:10 dilution in TSB under the same conditions until reaching OD600nm = 0.3–0.4, as measured by spectrophotometric reading using a GENESYS 10S UV–Vis spectrophotometer (Thermo Scientific, Milan, Italy), corresponding to 0.9–1.2 × 10^7 colony forming units (CFU) per mL, 1.5–2 × 10^8 CFU/mL and 2.4–3.2 × 10^8 CFU/mL, for C. albicans, S. aureus and E. coli respectively. The cultures were then centrifuged at 4500 rpm for 10 min in a SL 8 centrifuge (TX-150 Rotor) (Thermo Scientific, Milan, Italy), and the cellular pellets were washed with PBS pH 5.4. Pelletized cultures were then suspended in 10 mL of PBS pH 5.4, then the suspensions were diluted to a final concentration of 10^4 CFU/mL. Aliquots of 100 µl (corresponding to 10^3 CFU) were seeded in each well of a 96-wells plate. 3 µl of TSB at pH 5.4 were added to each well to obtain a final 1.5% TSB concentration in the culture medium. Peptides were serially diluted in PBS pH 5.4 to C = 0.257, 0.128, and 0.064 mg/mL. ZnCl2 and CuCl2 solutions were added where requested to obtain a M:L ratio 0.9:1. 100 µl of the prepared peptides ± ZnCl2/CuCl2 solutions were then added to each well, obtaining the final 0.128, 0.064 and 0.032 mg/mL peptide concentrations in a total 0.2 mL volume. PBS alone and PBS + ZnCl2/CuCl2 solutions were included as controls. The plates were incubated at 37 °C on a platform rocker with slow stirring for 3 and 24 h. At the end of the incubation times, 100 µl aliquots were taken from each sample and diluted in PBS pH 5.4 to be seeded on TSA plates. Specifically, aliquots were diluted 1:10 at 3 h, and 1:200, 1:100,000 and 1:10 at 24 h, for C. albicans, E. coli, and S. aureus respectively. After incubation for 24 h at 37 °C, grown CFUs were enumerated. Samples were assayed in triplicate in two independent experiments. Student’s t-test was used for the evaluation of significance in biological tests; a p value ≤ 0.05 was considered significant.
# [2] = T = 298 K, I = 0.1 M (KCl), charges omitted
# [3] = peptide 0.032 mg/mL + CuCl2 (0.9:1), 24 h
# [4] = peptide 0.032 mg/mL + ZnCl2 (0.9:1), 24 h
# [5] = peptide 0.064 mg/mL + CuCl2 (0.9:1), 24 h
# [6] = peptide 0.064 mg/mL + ZnCl2 (0.9:1), 24 h
# [7] = peptide 0.128 mg/mL + CuCl2 (0.9:1), 24 h
# [8] = peptide 0.128 mg/mL + ZnCl2 (0.9:1), 24 h
# [9] = peptide alone 0.032 mg/mL, 24 h
# [10] = peptide alone 0.064 mg/mL, 24 h
# [11] = peptide alone 0.128 mg/mL, 24 h
smiles,measurement,setting,value
"CC[C@H](C)[C@H](NC(=O)[C@H](C)NC(=O)[C@@H](NC(C)=O)C(C)C)C(=O)N[C@@H](C)C(=O)N[C@@H](CC(C)C)C(=O)N[C@@H](CCCCN)C(=O)N[C@@H](C)C(=O)N[C@@H](C)C(=O)N[C@@H](Cc1c[nH]cn1)C(=O)N[C@@H](Cc1ccc(O)cc1)C(=O)N[C@@H](Cc1c[nH]cn1)C(=O)N[C@H](C(=O)N[C@@H](Cc1c[nH]cn1)C(=O)N[C@@H](CCCCN)C(=O)N[C@@H](CCC(=O)O)C(N)=O)[C@@H](C)O [L2, Ac-VAIALKAAHYHTHKE-NH2] (Ac-VAIALKAAHYHTHKE-NH2)",pKa [CuH2L],[1],5.49
same,pKa [CuH-1L],[1],9.44
same,pKa [CuH-2L],[1],9.91
same,pKa [CuHL],[1],6.30
same,pKa [CuL],[1],6.70
same,pKa [ZnH2L],[1],6.14
same,pKa [ZnH-1L],[1],9.44
same,pKa [ZnHL],[1],7.63
same,pKa [ZnL],[1],8.93
same,logβ [CuH2L],[1]; [2],23.06(4)
same,logβ [CuH-1L],[1]; [2],4.57(6)
same,logβ [CuHL],[1]; [2],17.57(5)
same,logβ [CuL],[1]; [2],11.27(7)
same,logβ [ZnH2L],[1]; [2],20.29(6)
same,logβ [ZnHL],[1]; [2],14.15(4)
same,logβ [ZnL],[1]; [2],6.52(5)
same,mean CFU number ± S.D.,"E. coli (ATCC 25922); peptide 0.032 mg/mL + CuCl2 (0.9:1), 3 h",467 ± 19 CFU
same,CFU decrease/increase with respect to untreated controls,E. coli (ATCC 25922); [3],-2.9%
same,mean CFU number ± S.D.,E. coli (ATCC 25922); [3],167 ± 37 CFU
same,mean CFU number ± S.D.,"E. coli (ATCC 25922); peptide 0.032 mg/mL + ZnCl2 (0.9:1), 3 h",378 ± 8 CFU
same,CFU decrease/increase with respect to untreated controls,E. coli (ATCC 25922); [4],-12.7%
same,mean CFU number ± S.D.,E. coli (ATCC 25922); [4],150 ± 4 CFU
same,mean CFU number ± S.D.,"E. coli (ATCC 25922); peptide 0.064 mg/mL + CuCl2 (0.9:1), 3 h",371 ± 54 CFU
same,CFU decrease/increase with respect to untreated controls,E. coli (ATCC 25922); [5],-2.9%
same,mean CFU number ± S.D.,E. coli (ATCC 25922); [5],167 ± 12 CFU
same,mean CFU number ± S.D.,"E. coli (ATCC 25922); peptide 0.064 mg/mL + ZnCl2 (0.9:1), 3 h",248 ± 88 CFU
same,CFU decrease/increase with respect to untreated controls,E. coli (ATCC 25922); [6],-15.1%
same,mean CFU number ± S.D.,E. coli (ATCC 25922); [6],146 ± 6 CFU
same,mean CFU number ± S.D.,"E. coli (ATCC 25922); peptide 0.128 mg/mL + CuCl2 (0.9:1), 3 h",190 ± 15 CFU
same,CFU decrease/increase with respect to untreated controls,E. coli (ATCC 25922); [7],-21%
same,mean CFU number ± S.D.,E. coli (ATCC 25922); [7],136 ± 25 CFU
same,mean CFU number ± S.D.,"E. coli (ATCC 25922); peptide 0.128 mg/mL + ZnCl2 (0.9:1), 3 h",44 ± 4 CFU
same,CFU decrease/increase with respect to untreated controls,E. coli (ATCC 25922); [8],-8.1%
same,mean CFU number ± S.D.,E. coli (ATCC 25922); [8],158 ± 18 CFU
same,CFU decrease/increase with respect to untreated controls,"E. coli (ATCC 25922); peptide alone 0.032 mg/mL, 3 h",-1%
same,mean CFU number ± S.D.,"E. coli (ATCC 25922); peptide alone 0.032 mg/mL, 3 h","1,037 ± 161 CFU"
same,CFU decrease/increase with respect to untreated controls,E. coli (ATCC 25922); [9],+9%
same,mean CFU number ± S.D.,E. coli (ATCC 25922); [9],187 ± 11 CFU
same,CFU decrease/increase with respect to untreated controls,"E. coli (ATCC 25922); peptide alone 0.064 mg/mL, 3 h",-2%
same,mean CFU number ± S.D.,"E. coli (ATCC 25922); peptide alone 0.064 mg/mL, 3 h",1031 ± 83 CFU
same,CFU decrease/increase with respect to untreated controls,E. coli (ATCC 25922); [10],+8%
same,mean CFU number ± S.D.,E. coli (ATCC 25922); [10],186 ± 14 CFU
same,CFU decrease/increase with respect to untreated controls,"E. coli (ATCC 25922); peptide alone 0.128 mg/mL, 3 h",-19%
same,mean CFU number ± S.D.,"E. coli (ATCC 25922); peptide alone 0.128 mg/mL, 3 h",845 ± 55 CFU
same,CFU decrease/increase with respect to untreated controls,E. coli (ATCC 25922); [11],-3%
same,mean CFU number ± S.D.,E. coli (ATCC 25922); [11],166 ± 20 CFU
